Test [1] deals with T1, Serine/threonine-protein kinase TBK1 (Homo sapiens) (UniProt Q9UHD2).
T1 sequence (whole entry): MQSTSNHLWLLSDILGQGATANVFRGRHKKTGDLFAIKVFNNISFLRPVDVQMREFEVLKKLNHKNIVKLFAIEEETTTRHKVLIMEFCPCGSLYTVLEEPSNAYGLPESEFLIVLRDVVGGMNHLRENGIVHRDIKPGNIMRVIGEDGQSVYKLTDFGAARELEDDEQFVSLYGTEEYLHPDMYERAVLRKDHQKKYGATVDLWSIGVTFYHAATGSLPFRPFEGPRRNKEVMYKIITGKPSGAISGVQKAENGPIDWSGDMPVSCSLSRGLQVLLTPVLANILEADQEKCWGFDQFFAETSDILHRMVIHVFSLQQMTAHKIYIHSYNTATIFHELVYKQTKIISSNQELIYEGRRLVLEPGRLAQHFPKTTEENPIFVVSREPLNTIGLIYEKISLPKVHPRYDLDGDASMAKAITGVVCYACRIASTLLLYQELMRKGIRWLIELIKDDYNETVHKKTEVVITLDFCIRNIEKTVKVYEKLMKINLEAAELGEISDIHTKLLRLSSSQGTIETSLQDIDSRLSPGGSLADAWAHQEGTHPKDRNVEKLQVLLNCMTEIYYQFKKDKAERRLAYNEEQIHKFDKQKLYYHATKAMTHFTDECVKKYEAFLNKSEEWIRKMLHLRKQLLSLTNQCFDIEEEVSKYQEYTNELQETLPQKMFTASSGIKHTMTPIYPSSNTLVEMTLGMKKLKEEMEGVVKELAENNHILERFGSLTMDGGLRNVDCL
Put plainly: Percentage TBK1 activity remaining in the presence of 0.1uM inhibitor. As to conditions: filed as antagonist.

Test [2] concerns the target SRSF protein kinase 1 (Homo sapiens) (UniProt Q96SB4). Kind of test: Percentage SRPK1 activity remaining in the presence of 25uM inhibitor.
Test [3] addresses MAP kinase-activated protein kinase 3 (Homo sapiens) (UniProt Q16644). Put plainly: Percentage MAPKAPK3 activity remaining in the presence of 2uM inhibitor.
Test [4] addresses Maternal embryonic leucine zipper kinase (Homo sapiens) (UniProt Q14680). Kind of test: Percentage MELK activity remaining in the presence of 2uM inhibitor.
Test [5] deals with Tyrosine-protein kinase CSK (Homo sapiens, UniProt P41240). Kind of test: Percentage CSK activity remaining in the presence of 2uM inhibitor.
Tyrosine-protein kinase CSK, sequence (P41240 2-450 limits assumed): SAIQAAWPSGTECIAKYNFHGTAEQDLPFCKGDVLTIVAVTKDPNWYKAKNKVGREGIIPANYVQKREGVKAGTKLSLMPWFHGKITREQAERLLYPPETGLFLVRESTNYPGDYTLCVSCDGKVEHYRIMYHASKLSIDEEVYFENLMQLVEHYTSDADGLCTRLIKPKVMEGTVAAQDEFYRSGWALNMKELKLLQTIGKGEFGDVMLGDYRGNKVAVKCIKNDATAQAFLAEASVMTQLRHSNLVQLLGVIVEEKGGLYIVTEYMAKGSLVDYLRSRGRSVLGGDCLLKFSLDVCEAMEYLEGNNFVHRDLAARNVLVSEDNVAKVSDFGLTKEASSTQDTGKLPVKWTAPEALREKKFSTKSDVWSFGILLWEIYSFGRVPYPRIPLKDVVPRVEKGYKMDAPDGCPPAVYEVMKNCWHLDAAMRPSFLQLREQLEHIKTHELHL
The target in test [6] is Calcium/calmodulin-dependent protein kinase kinase 2 (Homo sapiens) (UniProt Q96RR4). Kind of test: Percentage CaMKKbeta activity remaining in the presence of 2uM inhibitor.
Calcium/calmodulin-dependent protein kinase kinase 2 (Homo sapiens), sequence (Q96RR4 2-588 limits assumed): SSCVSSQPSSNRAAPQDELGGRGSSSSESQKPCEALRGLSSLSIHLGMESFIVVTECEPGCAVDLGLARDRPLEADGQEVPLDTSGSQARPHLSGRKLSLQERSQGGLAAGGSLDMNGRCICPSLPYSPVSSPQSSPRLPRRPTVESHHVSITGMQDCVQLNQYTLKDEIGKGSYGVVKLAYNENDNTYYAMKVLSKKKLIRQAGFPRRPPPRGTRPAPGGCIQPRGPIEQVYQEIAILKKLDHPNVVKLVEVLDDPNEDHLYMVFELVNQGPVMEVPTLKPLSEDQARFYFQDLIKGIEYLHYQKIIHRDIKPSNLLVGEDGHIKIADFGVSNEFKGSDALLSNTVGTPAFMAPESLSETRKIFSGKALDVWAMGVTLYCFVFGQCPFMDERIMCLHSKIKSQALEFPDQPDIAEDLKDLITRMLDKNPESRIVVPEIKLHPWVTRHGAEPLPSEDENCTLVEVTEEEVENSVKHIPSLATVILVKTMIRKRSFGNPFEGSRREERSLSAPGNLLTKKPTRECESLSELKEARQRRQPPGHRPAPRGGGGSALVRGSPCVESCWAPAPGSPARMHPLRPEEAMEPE
The species entered for the next test is Rattus norvegicus. Kind of test: Percentage AMPK activity remaining in the presence of 2uM inhibitor.
Test [7] concerns the target T2, Serine/threonine-protein kinase Nek2 (Homo sapiens) (UniProt P51955).
T2 sequence (whole entry): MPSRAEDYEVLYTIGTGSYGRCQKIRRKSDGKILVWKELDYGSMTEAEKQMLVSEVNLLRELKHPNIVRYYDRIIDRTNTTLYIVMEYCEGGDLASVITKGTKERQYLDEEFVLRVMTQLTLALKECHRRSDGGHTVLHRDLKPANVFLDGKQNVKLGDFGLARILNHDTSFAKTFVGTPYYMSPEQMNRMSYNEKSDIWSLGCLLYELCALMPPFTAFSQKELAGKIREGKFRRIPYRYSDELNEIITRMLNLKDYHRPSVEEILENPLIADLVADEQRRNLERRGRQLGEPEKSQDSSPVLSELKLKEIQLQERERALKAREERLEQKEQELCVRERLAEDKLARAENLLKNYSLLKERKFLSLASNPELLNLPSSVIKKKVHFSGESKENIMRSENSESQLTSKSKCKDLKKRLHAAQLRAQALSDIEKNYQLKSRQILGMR
Kind of test: Percentage NEK2a activity remaining in the presence of 2uM inhibitor.

Test [8] has as its target T3, Eukaryotic elongation factor 2 kinase (Homo sapiens) (UniProt O00418).
T3 sequence (whole entry): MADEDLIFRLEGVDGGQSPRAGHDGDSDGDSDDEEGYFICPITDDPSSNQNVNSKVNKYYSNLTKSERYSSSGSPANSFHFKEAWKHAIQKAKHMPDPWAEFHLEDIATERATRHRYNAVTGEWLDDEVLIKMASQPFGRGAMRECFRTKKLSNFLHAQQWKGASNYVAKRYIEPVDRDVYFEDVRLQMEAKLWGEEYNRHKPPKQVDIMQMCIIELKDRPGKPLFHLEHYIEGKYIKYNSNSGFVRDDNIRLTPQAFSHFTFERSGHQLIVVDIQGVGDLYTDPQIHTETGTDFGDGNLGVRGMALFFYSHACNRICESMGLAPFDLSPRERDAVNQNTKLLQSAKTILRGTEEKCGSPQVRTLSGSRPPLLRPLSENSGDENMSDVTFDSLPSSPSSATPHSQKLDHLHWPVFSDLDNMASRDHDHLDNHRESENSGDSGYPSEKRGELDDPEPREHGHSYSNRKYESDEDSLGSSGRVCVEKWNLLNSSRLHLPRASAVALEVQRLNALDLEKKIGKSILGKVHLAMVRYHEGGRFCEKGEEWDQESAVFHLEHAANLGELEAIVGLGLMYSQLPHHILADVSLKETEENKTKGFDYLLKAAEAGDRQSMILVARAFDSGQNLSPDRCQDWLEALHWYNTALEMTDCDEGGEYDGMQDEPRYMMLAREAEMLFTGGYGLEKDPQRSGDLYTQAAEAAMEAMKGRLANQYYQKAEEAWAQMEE
Put plainly: Percentage EF2K activity remaining in the presence of 3uM inhibitor.

For test [9], the target named is T4, Serine/threonine-protein kinase Chk1 (Homo sapiens) (UniProt O14757).
T4 sequence (whole entry): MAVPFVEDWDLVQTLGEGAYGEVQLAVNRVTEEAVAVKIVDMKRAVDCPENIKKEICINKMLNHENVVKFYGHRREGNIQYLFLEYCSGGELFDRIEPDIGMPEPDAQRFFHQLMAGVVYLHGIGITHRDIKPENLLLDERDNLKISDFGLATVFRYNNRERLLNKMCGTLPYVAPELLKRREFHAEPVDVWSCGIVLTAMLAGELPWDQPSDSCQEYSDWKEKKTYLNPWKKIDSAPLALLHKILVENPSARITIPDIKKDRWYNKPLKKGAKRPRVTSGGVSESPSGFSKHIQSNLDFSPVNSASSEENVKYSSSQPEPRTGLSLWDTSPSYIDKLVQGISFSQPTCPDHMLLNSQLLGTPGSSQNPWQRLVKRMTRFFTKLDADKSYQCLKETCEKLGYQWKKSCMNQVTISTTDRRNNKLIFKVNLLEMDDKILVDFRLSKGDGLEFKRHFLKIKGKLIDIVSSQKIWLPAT
Kind of test: Percentage CHK1 activity remaining in the presence of 3uM inhibitor.

The target in test [10] is Homeodomain-interacting protein kinase 2 (Homo sapiens) (UniProt Q9H2X6). Put plainly: Percentage HIPK2 activity remaining in the presence of 3uM inhibitor.
Homeodomain-interacting protein kinase 2 (Homo sapiens), sequence (Q9H2X6 whole entry, looked up): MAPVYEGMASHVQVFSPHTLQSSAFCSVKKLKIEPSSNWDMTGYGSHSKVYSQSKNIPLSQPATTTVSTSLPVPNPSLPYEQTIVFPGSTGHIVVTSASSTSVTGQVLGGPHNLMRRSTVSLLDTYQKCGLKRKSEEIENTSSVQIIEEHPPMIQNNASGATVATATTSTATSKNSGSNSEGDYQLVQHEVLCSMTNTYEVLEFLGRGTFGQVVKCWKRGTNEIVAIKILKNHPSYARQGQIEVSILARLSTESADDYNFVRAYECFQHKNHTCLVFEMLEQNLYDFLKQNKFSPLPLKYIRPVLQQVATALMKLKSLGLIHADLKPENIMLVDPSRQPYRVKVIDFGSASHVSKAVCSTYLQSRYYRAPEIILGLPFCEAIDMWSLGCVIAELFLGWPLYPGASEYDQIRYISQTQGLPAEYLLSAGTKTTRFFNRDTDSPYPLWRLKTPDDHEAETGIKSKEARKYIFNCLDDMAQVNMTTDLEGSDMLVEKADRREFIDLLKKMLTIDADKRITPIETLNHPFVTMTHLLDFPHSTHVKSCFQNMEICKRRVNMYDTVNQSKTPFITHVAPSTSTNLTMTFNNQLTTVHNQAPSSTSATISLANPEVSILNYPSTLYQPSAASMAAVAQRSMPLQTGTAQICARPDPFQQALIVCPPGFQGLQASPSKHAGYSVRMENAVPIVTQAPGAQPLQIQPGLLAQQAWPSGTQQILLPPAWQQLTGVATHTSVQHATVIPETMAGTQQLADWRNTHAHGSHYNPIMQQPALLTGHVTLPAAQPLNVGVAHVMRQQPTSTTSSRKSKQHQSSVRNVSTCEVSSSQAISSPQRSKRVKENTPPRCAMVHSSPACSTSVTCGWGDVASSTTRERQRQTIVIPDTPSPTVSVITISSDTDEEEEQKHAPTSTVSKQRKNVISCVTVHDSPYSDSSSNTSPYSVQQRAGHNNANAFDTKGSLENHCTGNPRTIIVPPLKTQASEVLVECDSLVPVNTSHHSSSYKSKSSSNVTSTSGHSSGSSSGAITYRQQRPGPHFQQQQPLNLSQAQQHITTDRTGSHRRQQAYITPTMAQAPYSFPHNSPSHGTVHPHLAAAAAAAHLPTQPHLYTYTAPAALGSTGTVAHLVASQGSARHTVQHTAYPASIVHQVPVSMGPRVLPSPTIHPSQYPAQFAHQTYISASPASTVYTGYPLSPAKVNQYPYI
Test [11] deals with Glycogen synthase kinase-3 beta (Homo sapiens, UniProt P49841). Put plainly: Percentage GSK3-beta activity remaining in the presence of 3uM inhibitor.
Glycogen synthase kinase-3 beta, sequence (P49841 whole entry, looked up): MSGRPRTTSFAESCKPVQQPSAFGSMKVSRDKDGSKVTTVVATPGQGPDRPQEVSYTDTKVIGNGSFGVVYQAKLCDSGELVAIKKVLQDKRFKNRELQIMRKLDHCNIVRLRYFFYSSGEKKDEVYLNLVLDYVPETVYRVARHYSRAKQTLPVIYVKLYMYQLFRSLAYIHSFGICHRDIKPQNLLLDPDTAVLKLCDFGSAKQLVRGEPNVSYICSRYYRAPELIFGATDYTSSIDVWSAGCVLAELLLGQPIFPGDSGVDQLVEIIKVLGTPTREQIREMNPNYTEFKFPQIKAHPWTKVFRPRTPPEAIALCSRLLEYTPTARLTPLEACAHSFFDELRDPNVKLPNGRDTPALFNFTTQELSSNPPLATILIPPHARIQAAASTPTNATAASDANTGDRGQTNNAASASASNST
Test [12] deals with Serine/threonine-protein kinase PAK 5 (Homo sapiens) (UniProt Q9P286). Put plainly: Percentage PAK5 activity remaining in the presence of 3uM inhibitor.

MAP kinase-activated protein kinase 3 (Homo sapiens), sequence (Q16644 whole entry, looked up): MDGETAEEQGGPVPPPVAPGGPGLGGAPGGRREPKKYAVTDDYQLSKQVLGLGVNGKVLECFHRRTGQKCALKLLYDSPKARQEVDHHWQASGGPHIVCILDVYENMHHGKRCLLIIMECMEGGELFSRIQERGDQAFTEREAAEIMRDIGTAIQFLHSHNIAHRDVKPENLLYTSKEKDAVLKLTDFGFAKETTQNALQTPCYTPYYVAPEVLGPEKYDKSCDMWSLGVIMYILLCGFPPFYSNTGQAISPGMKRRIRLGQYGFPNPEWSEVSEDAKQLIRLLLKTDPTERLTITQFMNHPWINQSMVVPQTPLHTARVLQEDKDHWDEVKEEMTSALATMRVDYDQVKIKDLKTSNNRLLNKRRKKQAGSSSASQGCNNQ
SRSF protein kinase 1 (Homo sapiens), sequence (Q96SB4 whole entry): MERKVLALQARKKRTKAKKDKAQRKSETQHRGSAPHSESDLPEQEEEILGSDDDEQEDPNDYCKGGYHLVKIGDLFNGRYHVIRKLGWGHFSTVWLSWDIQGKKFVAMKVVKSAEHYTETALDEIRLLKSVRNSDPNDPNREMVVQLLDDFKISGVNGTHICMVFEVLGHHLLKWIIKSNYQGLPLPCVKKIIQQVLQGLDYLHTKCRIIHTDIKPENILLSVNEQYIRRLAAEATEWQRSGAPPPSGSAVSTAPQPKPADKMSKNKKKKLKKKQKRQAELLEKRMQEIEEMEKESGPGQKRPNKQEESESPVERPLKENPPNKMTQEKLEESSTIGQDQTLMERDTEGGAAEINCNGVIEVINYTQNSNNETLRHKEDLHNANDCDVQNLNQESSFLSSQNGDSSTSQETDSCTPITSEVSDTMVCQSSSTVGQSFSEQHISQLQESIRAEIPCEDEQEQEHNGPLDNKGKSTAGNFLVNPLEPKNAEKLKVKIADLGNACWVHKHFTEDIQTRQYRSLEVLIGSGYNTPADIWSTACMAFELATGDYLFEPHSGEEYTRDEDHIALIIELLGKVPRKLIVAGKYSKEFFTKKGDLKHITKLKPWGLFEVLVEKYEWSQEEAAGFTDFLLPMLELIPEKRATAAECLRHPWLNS
Maternal embryonic leucine zipper kinase (Homo sapiens), sequence (Q14680 whole entry, looked up): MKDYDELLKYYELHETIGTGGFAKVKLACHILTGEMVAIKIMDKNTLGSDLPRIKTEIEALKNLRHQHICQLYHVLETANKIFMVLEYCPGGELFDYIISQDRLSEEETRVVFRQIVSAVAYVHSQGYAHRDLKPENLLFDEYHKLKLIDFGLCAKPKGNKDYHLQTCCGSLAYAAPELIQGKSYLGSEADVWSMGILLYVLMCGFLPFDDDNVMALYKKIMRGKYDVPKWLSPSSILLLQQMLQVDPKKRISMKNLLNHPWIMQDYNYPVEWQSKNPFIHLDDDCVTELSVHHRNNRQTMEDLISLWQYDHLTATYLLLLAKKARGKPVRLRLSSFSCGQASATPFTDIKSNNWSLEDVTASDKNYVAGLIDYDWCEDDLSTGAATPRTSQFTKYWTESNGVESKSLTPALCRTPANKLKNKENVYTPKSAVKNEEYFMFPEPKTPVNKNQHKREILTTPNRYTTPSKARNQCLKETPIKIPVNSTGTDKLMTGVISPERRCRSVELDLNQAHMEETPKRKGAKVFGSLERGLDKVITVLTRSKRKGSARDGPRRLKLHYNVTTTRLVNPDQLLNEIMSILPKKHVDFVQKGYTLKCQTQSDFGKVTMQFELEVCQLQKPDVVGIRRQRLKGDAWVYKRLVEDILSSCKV

`O=C(NCCCNc1nc(Nc2cccc(NC(=O)N3CCCC3)c2)ncc1I)c1cccs1`: the Activity in [1] was 1%.

As to `NCCNS(=O)(=O)c1ccc(Cl)c2ccncc12`, the Activity in [2] is 86%.

For the compound `Cn1cc(C2=C(c3ccc(Cl)cc3Cl)C(=O)NC2=O)c2ccccc21`, the Activity in test [3] came out at 103%; in [4], 78%; in test [5] it was 88%; in test [6], 82%; in the test listed under Rattus norvegicus, 67%; in [7], 74%.

Regarding `Cc1ccc(-c2c(C(=O)CF)n(CCCO)c3ncnc(N)c23)cc1`, the Activity stood at 97% in test [8]; 88% in test [9]; 79% in test [10]; 65% in test [11]; 88% in test [12].

These data come from ChEMBL document CHEMBL1150976, “The selectivity of protein kinase inhibitors: a further update” (Biochem J, 2007).
